Measurements from patent publication US8318753B2, “Farnesyl transferase inhibiting 1,2-annelated quinoline enantiomer” (Janssen Pharmaceutica NV, priority 2000, dated 2012).

Experiments:
[1] = molecular target: farnesyl protein transferase (FPTase) (Homo sapiens, UniProt P49354+P49356); assay: In vitro assay for inhibition of farnesyl protein transferase; type: biochemical; details: essentially as described in WO 98/40383, pages 33-34, read-out: IC50 FPTase inhibitory activity
Description: In Vitro Assay for Inhibition of Farnesyl Protein Transferase
An in vitro assay for inhibition of farnesyl protein transferase was performed essentially as described in WO 98/40383, pages 33-34.

Row | Structure (SMILES) | melting point [°C] | IC50 [1] [nM]
1 | Cn1cncc1C(N)(c1ccc(Cl)cc1)c1ccc2c(c1)c(-c1cccc(Cl)c1)nc1nnnn12 (single isomer, unassigned; (-)) [(−) enantiomer, (−)-5-(3-chlorophenyl)-α-(4-chlorophenyl)-α-(1-methyl-1H-imidazol-5-yl)tetrazolo[1,5-a]quinazoline-7-methanamine] | 178 to 180 | 0.7
2 | Cn1cncc1C(N)(c1ccc(Cl)cc1)c1ccc2c(c1)c(-c1cccc(Cl)c1)nc1nnnn12 (racemic) [parent enantiomeric mixture, (±)-5-(3-chlorophenyl)-α-(4-chlorophenyl)-α-(1-methyl-1H-imidazol-5-yl)tetrazolo[1,5-a]quinazoline-7-methanamine, reference compound] | – | 1.1
